From PMC6271338, “Synthesis and Cytotoxic Evaluation of Alkoxylated Chalcones” (Molecules, 2014)

How the values were obtained:
HeLa cells = experiment: In vitro anti-proliferative SRB assay, HeLa; assay type: cell-based, human; details: for IC50: Homo sapiens, HeLa, increasing concentrations up to 30 μM, mean ± SD of at least three independent experiments; for SI (CC50 HMLE/IC50 Hela) / SI (CC50 L02/IC50 Hela): selectivity index; for SI (CC50 HMLE/IC50 Hela): HMLE vs HeLa; for SI (CC50 L02/IC50 Hela): L02 vs HeLa
Experimental: (§1) HepG2 and MCF7 cells were grown in the Eagle’s minimum essential medium with Earle’s balanced salts (MEM-EBSS) medium, HeLa, A549 and L02 cells were grown in Dulbecco’s Modified Eagle Media (DMEM), SW1990 cells were grown in RPMI-1640 medium, and HMLE cell were grown in DMEM/F-12 medium. […]
(§2) Cells were seeded into 96-well plates (4000 cells/well) and incubated at 37 °C in a humidified 5% CO2 atmosphere. After 24 h, the cells were treated with different concentrations of the compounds for 48 h in triplicate to generate dose-response curves. Cell viability was evaluated using the sulforhodamine B (SRB) assay as previous described.

[1] = Cytotoxicity (SRB) against non-tumoral HMLE cells; assay type: cell-based, human; details: human, HMLE cells (non-tumoral human mammary epithelial cells); increasing concentrations up to 100 μM; mean ± SD of at least three independent experiments; read-out: Normal Human Cell Lines, CC50, HMLE
Experimental: (§3) All compounds were also evaluated for their cytotoxic activity against two non-tumoral human cell lines named human mammary epithelial cell (HMLE) and L02 (a human liver cell line) in Table 2 and SI values between the CC50 in non-tumoral cell lines and IC50 in tumoral cells calculated.
as §1
as §2, with “described. […] Etoposide was used as the positive control.” for “described.”

HepG2 cells = experiment: In vitro anti-proliferative SRB assay, HepG2; assay type: cell-based, human; details: for IC50: Homo sapiens, HepG2, increasing concentrations up to 30 μM, mean ± SD of at least three independent experiments; for SI (CC50 HMLE/IC50 HepG2) / SI (CC50 L02/IC50 HepG2): selectivity index; for SI (CC50 HMLE/IC50 HepG2): HMLE vs HepG2; for SI (CC50 L02/IC50 HepG2): L02 vs HepG2
Experimental: as §1, §2

MCF-7 cells = experiment: In vitro anti-proliferative SRB assay, MCF-7; assay type: cell-based, human; details: for IC50: Homo sapiens, MCF7, increasing concentrations up to 30 μM, mean ± SD of at least three independent experiments; for SI (CC50 HMLE/IC50 MCF7) / SI (CC50 L02/IC50 MCF7): selectivity index; for SI (CC50 HMLE/IC50 MCF7): HMLE vs MCF7; for SI (CC50 L02/IC50 MCF7): L02 vs MCF7
Experimental: as §1, §2

[2] = Cytotoxicity (SRB) against non-tumoral L02 cells; assay type: cell-based, human; details: human, L02 cells (non-tumoral human liver cell line); increasing concentrations up to 100 μM; mean ± SD of at least three independent experiments; read-out: Normal Human Cell Lines, CC50, L02
Experimental: as §3, §1
as §2, with “described. […] Etoposide was used as the positive control.” for “described.”

SW1990 cells = experiment: In vitro anti-proliferative SRB assay, SW1990; assay type: cell-based, human; details: for IC50: Homo sapiens, SW1990, increasing concentrations up to 30 μM, mean ± SD of at least three independent experiments; for SI (CC50 HMLE/IC50 SW1990) / SI (CC50 L02/IC50 SW1990): selectivity index; for SI (CC50 HMLE/IC50 SW1990): HMLE vs SW1990; for SI (CC50 L02/IC50 SW1990): L02 vs SW1990
Experimental: as §1, §2

A549 cells = experiment: In vitro anti-proliferative SRB assay, A549; assay type: cell-based, human; details: for IC50: Homo sapiens, A549, increasing concentrations up to 30 μM, mean ± SD of at least three independent experiments; for SI (CC50 HMLE/IC50 A549) / SI (CC50 L02/IC50 A549): selectivity index; for SI (CC50 HMLE/IC50 A549): HMLE vs A549; for SI (CC50 L02/IC50 A549): L02 vs A549
Experimental: as §1, §2

SMILES	IC50 (HeLa cells)	IC50 (HepG2 cells)	IC50 (MCF-7 cells)	IC50 (SW1990 cells)	melting point	IC50 (A549 cells)	SI (CC50 HMLE/IC50 Hela) (HeLa cells)	SI (CC50 L02/IC50 Hela) (HeLa cells)	CC50 at 48 h [1]	SI (CC50 HMLE/IC50 HepG2) (HepG2 cells)	SI (CC50 L02/IC50 HepG2) (HepG2 cells)	SI (CC50 HMLE/IC50 MCF7) (MCF-7 cells)	SI (CC50 L02/IC50 MCF7) (MCF-7 cells)	CC50 at 48 h [2]	SI (CC50 HMLE/IC50 SW1990) (SW1990 cells)	SI (CC50 L02/IC50 SW1990) (SW1990 cells)	SI (CC50 HMLE/IC50 A549) (A549 cells)	SI (CC50 L02/IC50 A549) (A549 cells)
COc1ccc(C(=O)/C=C/c2c(OC)cccc2OC)c(O)c1 [b28, (E)-1-(2-Hydroxy-4-methoxyphenyl)-3-(2,6-dimethoxyphenyl)prop-2-en-1-one]	17 ± 0.65 µM	19.5 ± 0.79 µM	28.4 ± 1.25 µM	28.3 ± 0.26 µM	143.5 to 144.7 °C	17.4 ± 0.97 µM	1.0	>5.9	16.2 ± 2.48 µM	0.8	>5.1	0.6	>3.5	> 100 µM	0.6	>3.5	0.9	>5.8
COc1cccc(OC)c1/C=C/C(=O)c1ccc2c(c1)OCO2 [b20, (E)-1-(Benzo[d][1,3]dioxol-5-yl)-3-(2,6-dimethoxyphenyl)prop-2-en-1-one]	16.2 ± 0.95 µM	17.5 ± 0.54 µM	22.5 ± 0.37 µM	25.9 ± 0.65 µM	138.6 to 140.4 °C	19.5 ± 0.9 µM	0.9	3.8	14.2 ± 1.06 µM	0.8	3.5	0.6	2.7	60.9 ± 5.61 µM	0.5	2.4	0.7	3.1
COc1cccc(OC)c1/C=C/C(=O)c1ccc(Cl)cc1 [b35, (E)-1-(4-Chlorophenyl)-3-(2,6-dimethoxyphenyl)prop-2-en-1-one]	18.4 ± 0.06 µM	27.1 ± 0.88 µM	29.8 ± 0.8 µM	> 30 µM	107.9 to 109.7 °C	> 30 µM	1.0	4.6	17.7 ± 1.35 µM	0.7	3.2	0.6	2.9	85.4 ± 6.86 µM	<0.6	<2.8	<0.6	<2.8

These reach a lower IC50 (HeLa cells). Values come first.

IC50 (HeLa cells)	IC50 (HepG2 cells)	IC50 (MCF-7 cells)	IC50 (SW1990 cells)	melting point	IC50 (A549 cells)	SMILES	SI (CC50 HMLE/IC50 Hela) (HeLa cells)	SI (CC50 L02/IC50 Hela) (HeLa cells)	CC50 at 48 h [1]	SI (CC50 HMLE/IC50 HepG2) (HepG2 cells)	SI (CC50 L02/IC50 HepG2) (HepG2 cells)	SI (CC50 HMLE/IC50 MCF7) (MCF-7 cells)	SI (CC50 L02/IC50 MCF7) (MCF-7 cells)	CC50 at 48 h [2]	SI (CC50 HMLE/IC50 SW1990) (SW1990 cells)	SI (CC50 L02/IC50 SW1990) (SW1990 cells)	SI (CC50 HMLE/IC50 A549) (A549 cells)	SI (CC50 L02/IC50 A549) (A549 cells)
12.7 ± 0.81 µM	14.4 ± 0.81 µM	20.2 ± 0.3 µM	20.8 ± 0.54 µM	189.6 to 191.4 °C	23.8 ± 1.56 µM	COc1cccc(OC)c1/C=C/C(=O)c1ccc(O)cc1 [b26, (E)-1-(4-Hydroxyphenyl)-3-(2,6-dimethoxyphenyl)prop-2-en-1-one]	1.0	2.2	12.6 ± 2.82 µM	0.9	2.0	0.6	1.4	28.2 ± 1.69 µM	0.6	1.4	0.5	1.2
9.56 ± 0.33 µM	7.27 ± 0.13 µM	8.92 ± 0.25 µM	21 ± 0.43 µM	138.1 to 139.7 °C	12.7 ± 0.28 µM	COc1cccc(OC)c1/C=C/C(=O)c1cccc(O)c1 [b25, (E)-1-(3-Hydroxyphenyl)-3-(2,6-dimethoxyphenyl)prop-2-en-1-one]	0.7	2.1	6.31 ± 0.13 µM	0.9	2.7	0.7	2.2	19.6 ± 1.29 µM	0.3	0.9	0.5	1.5
